Reference: patent US11306098B2, “Substituted pyrrolo[1,2-a]pyrazines and pyrrolo[1,2-a][1,4]diazepines as TREX1 inhibitors” (VENENUM BIODESIGN, LLC, priority 2019, dated 2022)

Experiments:
[1] = target: murine TREX1 (Mus musculus (Mouse), UniProt Q91XB0); experiment: TREX1 Exonuclease Assay (murine enzyme); assay type: biochemical; conditions: murine TREX1 1 nM, FAM/BHQ1-labeled DNA oligonucleotide
Procedure, shortened: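 Human TREX1 (aa 55-297, 0.5 nM) or murine TREX1 (aa 1-242, 1 nM) preincubated 30 min with compound (11-point, 3-fold), then 500 nM FAM/BHQ1-quenched DNA oligo added; 45 min at room temperature in pH 7.5 Tris buffer with 5 mM MgCl2, EDTA-stopped. Fluorescence (ex 485/em 535 nm) fit to four-parameter curve for IC50.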

[2] = target: cleaved human TREX1 (Homo sapiens (Human), UniProt Q9NSU2); experiment: TREX1 Thermal Shift Binding Assay (human); conditions: assay buffer, 100 μM compound, 5 μM TREX1; read-out: Thermal shift cleaved human TREX1, (ΔTm ° C.) Assay buffer
Experimental: (§1) Example B is a protein thermal shift assay used to assess the binding of TREX1 inhibitors to TREX1 protein. In this assay, TREX1 protein unfolding with increasing temperature was measured in the presence and absence of TREX1 inhibitors by following the increase in fluorescence of a thiol-reactive dye (e.g BODIPY FL-cystine) as it reacts with exposed TREX1 cysteine residues. The assay was conducted using human (SEQ ID NO: 1), or murine (SEQ ID NO: 2) TREX1 protein constructs.
(§2) The thermal shift assays used recombinant protein corresponding to human (SEQ ID NO: 1) and murine (SEQ ID NO: 2) TREX1. The protein encoding plasmid contained a N-terminal MBP (maltose binding protein) tag followed by the TREX1 coding sequence within the pMAL-c5E vector. The plasmid was transfected into a BL21 (DE3) E. coli expression strain. Protein was purified from the bacterial lysate using an Amylose resin column. The MBP tag was cleaved from the purified protein using recombinant enterokinase (EMD Millipore #69066-3). The cleaved TREX1 protein was further purified on a Q-Sepharose column followed by a heparin column.
(§3) Binding of compounds to both human and murine TREX1 were measured by protein thermal shift assays. (Huynh K, Partch C L. Current Protocols in Protein Science: Analysis of protein stability and ligand interactions by thermal shift assay. Current protocols in protein science/editorial board, John E Coligan. [et al]. 2015; 79:28.9.1-28.9.14. doi:10.1002/0471140864.ps2809s79.). Thermal shift assays were conducted in sealed 96-well PCR plates containing 5 μM TREX1 protein, 100 μM compound, and 2 μM BODIPY FL-cystine (Sigma) in either 20 μL assay buffer (20 mM Tris, 7.5, 5 mM MgCl2, 0.002% Triton X-100) or 20 μL phosphate buffered saline (PBS). Using a RT-qPCR machine (Mx3005P, Stratagene) changes in fluorescence (excitation at 492 nm and emission at 516 nm) were monitored as temperature was increased from 25° C. to 96° C. at a rate of 1° C. every 2 minutes. Tm values were calculated from the first derivative plot of fluorescence intensity versus temperature. The results shown in Table 6 indicate the examples bind to human TREX1 and murine TREX1. ND indicates assay was not done.

[3] = target: cleaved mouse TREX1 (Mus musculus (Mouse), UniProt Q91XB0); experiment: TREX1 Thermal Shift Binding Assay (mouse); conditions: PBS, 100 μM compound, 5 μM TREX1; read-out: Thermal shift cleaved mouse TREX1, (ΔTm ° C.) PBS
Experimental: as §1, §2, §3

Chain of murine TREX1 (Q91XB0 1-242): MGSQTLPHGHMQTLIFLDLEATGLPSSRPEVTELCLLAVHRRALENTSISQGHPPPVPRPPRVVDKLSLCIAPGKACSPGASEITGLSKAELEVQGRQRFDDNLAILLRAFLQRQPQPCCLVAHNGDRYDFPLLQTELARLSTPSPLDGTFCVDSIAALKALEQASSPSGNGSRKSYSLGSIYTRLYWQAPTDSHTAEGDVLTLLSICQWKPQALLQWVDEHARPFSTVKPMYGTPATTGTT
Chain of cleaved mouse TREX1 (Q91XB0 1-242): as above
Chain of cleaved human TREX1 (Q9NSU2 1-242): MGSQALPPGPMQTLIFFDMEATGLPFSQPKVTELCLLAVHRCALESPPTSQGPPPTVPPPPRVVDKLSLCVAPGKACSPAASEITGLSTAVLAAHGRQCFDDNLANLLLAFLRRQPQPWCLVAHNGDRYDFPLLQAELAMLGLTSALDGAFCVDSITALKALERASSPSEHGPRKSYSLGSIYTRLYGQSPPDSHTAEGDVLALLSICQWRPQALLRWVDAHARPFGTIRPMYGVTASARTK

Compound `N[C@@H]1C[C@H]2C(=O)N([C@H](CCC(=O)O)C(=O)NCc3ccc(Cl)c(Cl)c3)CCC(CCc3ccccc3)N2C1` (stereo partly drawn) [Example 14B] has an IC50 [1] of less than 1000 nM, a ΔTm at 100 µM [2] greater than 8 °C and a ΔTm at 100 µM [3] greater than 8 °C.
